Literature values as cited in patent publication US20050080252A1, “Process for preparing antiviral nucleoside derivatives” (Roche Palo Alto LLC, priority 2003, published 2005).

How the values were obtained:
[1] = unlike ribavirin

For `NC(=O)c1ncn([C@H]2O[C@@H](CO)[C@H](O)[C@@H]2O)n1` [levovirin, 1-(3S,4R-dihydroxy-5S-hydroxymethyl-tetrahydro-furan-2S-yl)-1H-[1,2,4]triazole-3 carboxylic acid amide], the direct antiviral activity [1] is listed as “does not have direct detectable antiviral activity” and the “immune response / antiviral Th1 cytokine expression” value (Th1 cytokine expression) is listed as “stimulates immune responses by enhancing antiviral Th1 cytokine expression”.
